{"source": "patent US20210123061A1", "about": "“METHODS AND COMPOSITIONS FOR TREATING INFLAMMATORY DISEASE OR DISORDER” (THE BRIGHAM AND WOMEN'S HOSPITAL, INC., priority 2018, published 2021)", "key": {"[1]": {"system": "IFN-γ-induced chemokine mRNA", "experiment": "Real-time PCR of IFN-γ-induced genes in PBMC-derived macrophages", "type": "cell-based, human", "conditions": "1 or 10 μM for two hours, then IFN-γ eight hours, vs DMSO", "procedure": "FIGS. 4A-D show silencing RSK1 suppresses IFN-γ-induced chemokines in human primary macrophages. (FIG. 4A and FIG. 4B) Human PBMC-derived macrophages were treated with control siRNA or RSK1 siRNA followed by treatment with IFN-γ for the indicated time. Total RNA samples were subjected to real-time PCR analysis using the indicated probes and primers. GAPDH was used for normalization. (FIG. 4A) Representative results from one donor. Data are means±SD. (FIG. 4B) Quantification of the area-under-the-curve (AUC) plots of the real-time PCR data in panel (FIG. 4A). Data are means±SE. N=3 donors. *P<0.05 and **P<0.01 indicate significance for AUC of mRNA levels by paired Student's test. (FIG. 4C) Macrophages were treated with DMSO or BI-D1870 (1 or 10 μM) for two hours followed by stimulation with IFN-γ for eight hours. Total RNA samples were subjected to real-time PCR analysis using the indicated probes and primers. GAPDH was used for normalization. Data are means±SE. N=3-4 donors. *P<0.05 and **P<0.01 indicate significance for mRNA levels compared to control (treatment with DMSO and IFN-γ) by Dunnett's comparison test. […] Secreted chemokine levels were measured using ELISA. […]\nReal-time PCR. […] The mRNA levels were determined by TaqMan-based real-time PCR reactions (Thermo Fisher Scientific). […] Data were normalized by human GAPDH and then calculated using the delta-delta Ct method."}, "[2]": {"system": "activated macrophages (CD45+ CD11b+ F4/80+ CD86+ cells)", "experiment": "Mouse model of thioglycollate-elicited peritonitis, flow cytometry of peritoneal cells", "type": "in vivo, mice", "conditions": "30 mg/kg intraperitoneally, twice; 24 hours after thioglycollate", "procedure": "FIGS. 5A-5D show RSK activity plays a key role for pro-inflammatory activation of macrophages in peritonitis model. (FIG. 5A) Model overview—mice were injected intraperitoneally with vehicle or 30 mg/kg BI-D1870. Twenty-four hours after the injection, 4% thioglycollate as well as vehicle or 30 mg/kg BI-D1870 were injected intraperitoneally in the mice. Forty-eight hours after the first injection, peritoneal cells were harvested. (FIG. 5B) Representative results of flow cytometry. Peritoneal cells were incubated with APC-Cy7-anti-CD45, FITC-anti-F4/80, APC-anti-CD11b, and PE-Cy7-anti-CD86 followed by flow-cytometry analysis. (FIG. 5C) Ratio of CD86-positive cells in peritoneal macrophages. Data are means±SE. N=10 mice. *P<0.05 indicates significance compared to control (vehicle) by unpaired Student's test. (FIG. 5D) Cell numbers of peritoneal CD86-positive macrophages. Data are means±SE. N=10 mice. *P<0.05 indicates significance by unpaired Student's test.\nMouse peritonitis model. C57BL/6J wild type mice (12 weeks old, male) were purchased from Jackson Laboratory. We injected intraperitoneally with vehicle (30% PEG400, 0.5% Tween80, 5% Propylene glycol) or 30 mg/kg BI-D1870 (Selleck Chemicals). […]\nFlow cytometry. […] After washing cells with EasySep Buffer, stained cells were analyzed by BD FACSAria II (BD Bioscience) and FlowJo software (FlowJo LLC)."}}, "data": [{"molecule": "CC(C)CCN1c2nc(Nc3cc(F)c(O)c(F)c3)ncc2N(C)C(=O)C1C", "note": "(stereo not drawn) [BI-D1870]", "values": [{"measurement": "mRNA levels of pro-inflammatory chemokines such as CCL2/MCP-1", "setting": "[1]", "value": "attenuated"}, {"measurement": "accumulation of activated macrophages in peritoneal cavity", "setting": "[2]", "value": "suppressed"}, {"measurement": "ratio of activated macrophages to total macrophages", "setting": "[2]", "value": "suppressed"}]}]}
